PMC10101059, “Rational Design of Stapled Antimicrobial Peptides to Enhance Stability and In Vivo Potency against Polymicrobial Sepsis” (Microbiology Spectrum, 2023)
≈ marks a conversion by molar mass, not a printed value.

Experiments:
[1] = test system: NDM1 K. pneumoniae; test: microbe, parasite or virus in culture; type: cell-based, Klebsiella pneumoniae
[2] = test system: E. coli; test: microbe, parasite or virus in culture; type: cell-based, Escherichia coli
[3] = test system: S enterica; test: Checkerboard microdilution assay (FICI); type: cell-based, Salmonella enterica
[4] = test system: MDR A. baumannii 2088; test: Checkerboard microdilution assay (FICI); type: cell-based, Acinetobacter baumannii
Description: (§1) The FICI was measured using a standard checkerboard microdilution assay ([57]). Two-fold dilutions of antibiotics were made across the x axis, and two-fold peptide dilutions were made across the y axis. Next, bacteria were added at 5 × 10^5 CFU/well (A. baumannii), followed by incubation at 37 ± 2°C for 16 to 20 h. FIC indices were calculated according to the following equations: FICI = FIC1 + FIC2; FIC1 = (MIC12 combined)/MIC1; FIC2 = (MIC12 combined)/MIC2. The combined efficacy was estimated as follows: FICI ≤ 0.5, synergistic; 0.5 to 1, additive; 1 to 2, indifferent; ≥2, antagonistic.

[5] = test system: MDR A. baumannii 2997; test: Checkerboard microdilution assay (FICI); type: cell-based, Acinetobacter baumannii
Description: as §1

[6] = test system: MDR A. baumannii 1033; test: Checkerboard microdilution assay (FICI); type: cell-based, Acinetobacter baumannii
Description: as §1

[7] = test system: MDR A. baumannii 3618; test: Checkerboard microdilution assay (FICI); type: cell-based, Acinetobacter baumannii
Description: as §1

[8] = test system: MDR A. baumannii 2998; test: Checkerboard microdilution assay (FICI); type: cell-based, Acinetobacter baumannii
Description: as §1

[9] = test system: P. aeruginosae; test: microbe, parasite or virus in culture; type: cell-based, Pseudomonas aeruginosa
[10] = test system: E. aerogenes; test: microbe, parasite or virus in culture; type: cell-based, Enterobacter aerogenes
[11] = test system: MDR A. baumannii 1019; test: microbe, parasite or virus in culture; type: cell-based, Acinetobacter baumannii
Description: as §1

[12] = test system: MDR A. baumannii 2962; test: microbe, parasite or virus in culture; type: cell-based, Acinetobacter baumannii
Description: as §1

[13] = test system: MDR A. baumannii 1607; test: microbe, parasite or virus in culture; type: cell-based, Acinetobacter baumannii
Description: as §1

[14] = test system: MDR A. baumannii 1702; test: microbe, parasite or virus in culture; type: cell-based, Acinetobacter baumannii
Description: as §1

[15] = test system: MDR A. baumannii 2982; test: microbe, parasite or virus in culture; type: cell-based, Acinetobacter baumannii
Description: as §1

[16] = test system: MDR A. baumannii 14B001; test: microbe, parasite or virus in culture; type: cell-based, Acinetobacter baumannii
Description: as §1

[17] = test system: MDR A. baumannii 921; test: microbe, parasite or virus in culture; type: cell-based, Acinetobacter baumannii
Description: as §1

[18] = MIC of each agent in combination, TP4-3 and D
[19] = Acinetobacter baumannii, read-out: Single drug treatment MIC

## C[C@H]1c2cccc(O)c2C(=O)C2=C(O)[C@]3(O)C(=O)C(C(N)=O)=C(O)[C@@H](N(C)C)[C@@H]3[C@@H](O)[C@@H]21 [D, doxycycline]
[1]; Klebsiella pneumoniae, read-out: Single drug treatment MIC
  MIC: 25 µM (≈ 11.1 µg/mL)
[1]; [18]
  TP4-3 and meropenem combined MIC: 3.13 µM
[2]; Escherichia coli, read-out: Single drug treatment MIC
  MIC: 50 µM (≈ 22.2 µg/mL)
[2]; [18]
  TP4-3 and meropenem combined MIC: 0.78 µM
[3]; [18]
  TP4-3 and meropenem combined MIC: 1.56 µM
[3]; Salmonella enterica, read-out: Single drug treatment MIC
  MIC: 6.25 µM
[4]; [19]
  MIC: 100 µM
[4]; [18]
  TP4-3 and meropenem combined MIC: 12.5 µM
[5]; [19]
  MIC: 50 µM
[5]; [18]
  TP4-3 and meropenem combined MIC: 25 µM
[6]; [19]
  MIC: 50 µM
[6]; [18]
  TP4-3 and meropenem combined MIC: 12.5 µM
[7]; [19]
  MIC: 100 µM
[7]; [18]
  TP4-3 and meropenem combined MIC: 25 µM
[8]; [19]
  MIC: 50 µM
[8]; [18]
  TP4-3 and meropenem combined MIC: 12.5 µM
[9]; [18]
  TP4-3 and meropenem combined MIC: 12.5 µM
[9]; Pseudomonas aeruginosa, read-out: Single drug treatment MIC
  MIC: 6.25 µM (≈ 2.78 µg/mL)
[10]; Klebsiella aerogenes, read-out: Single drug treatment MIC
  MIC: 3.13 µM (≈ 1.39 µg/mL)
[10]; [18]
  TP4-3 and meropenem combined MIC: 0.78 µM
[11]; [19]
  MIC: 100 µM
[11]; [18]
  TP4-3 and meropenem combined MIC: 12.5 µM
[12]; [19]
  MIC: 100 µM
[12]; [18]
  TP4-3 and meropenem combined MIC: 25 µM
[13]; [19]
  MIC: 100 µM
[13]; [18]
  TP4-3 and meropenem combined MIC: 25 µM
[14]; [19]
  MIC: 50 µM
[14]; [18]
  TP4-3 and meropenem combined MIC: 12.5 µM
[15]; [19]
  MIC: 50 µM
[15]; [18]
  TP4-3 and meropenem combined MIC: 25 µM
[16]; [19]
  MIC: 50 µM
[16]; [18]
  TP4-3 and meropenem combined MIC: 50 µM
[17]; [19]
  MIC: 200 µM
[17]; [18]
  TP4-3 and meropenem combined MIC: 25 µM
